Melting point data for 4 compounds are collected here from patent US20010047018A1 (published 2001).

Molecules are shown by their SMILES.

In the case of `CC(=O)NC[C@H]1CN(c2ccc3c(c2)CS(=O)(=O)N3C)C(=O)O1`, the melting point was in the range of 84 to 86 °C. The result for `CC(=O)NC[C@H]1CN(c2ccc3c(c2)CS(=O)(=O)N3CCF)C(=O)O1` reads 84 to 87 °C (dec.). The result for `CC(=O)NC[C@H]1CN(c2ccc3c(c2)CS(=O)(=O)N3CC#N)C(=O)O1` reads 124 to 126 °C (dec.). For the compound `CC(=S)NC[C@H]1CN(c2ccc3c(c2)CS(=O)(=O)N3CCF)C(=O)O1`, the melting point was 90 to 93 °C (dec.).
